# PubChem BioAssay AID488818 (NMMLSC, 2010)
# Active and inactive are the calls of the source.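 Rule for the calls: active = fluorescence change from solvent-only control to top dose above 25; inactive = the rest.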
# Tested on: S. cerevisiae s288c autofluorescence, flow cytometry MCF, 3 h
# Test: compound autofluorescence in parental yeast s288c, SAR follow-up, artefact control for yeast TOR pathway GFP screen, cherry pick 3, multiplex, flow cytometry (AID 488818)
# Details: at 33.3 µM; hits give high values
row,fluorescence change,SMILES
1,0.3 (inactive),Cn1cccc1C(=O)Nc1nc(-c2ccccn2)cs1
2,0.65 (inactive),CCc1sc(C(=O)Nc2nc(-c3ccccn3)cs2)cc1C
3,0.08 (inactive),CNc1nc(N)c([N+](=O)[O-])c(Nc2cccc(Cl)c2)n1
4,0.12 (inactive),N#Cc1c(N)nc(N)nc1Nc1ccc(Br)cc1
5,0.19 (inactive),Oc1ccc(Cl)c2cccnc12
6,0.25 (inactive),CC(=O)NC(C)c1cc(Cl)c2cccnc2c1O (stereo unspecified)
7,0.07 (inactive),O=C(Nc1nc(-c2ccccn2)cs1)c1ccccc1-n1cnnn1
8,0.81 (inactive),Cc1ccc2c(Cl)cc(Cl)c(O)c2n1
9,2.85 (inactive),Oc1c(Cl)cc(Cl)c2cccnc12
10,0.12 (inactive),COCC(C)NC(=O)CCS(=O)(=O)c1nc(-c2ccc(OC)cc2)cc(C(F)(F)F)n1 (stereo unspecified)
11,0.12 (inactive),Cc1cccc(C)c1Nc1ncnc(N)c1[N+](=O)[O-]
12,0.19 (inactive),COc1ccccc1Nc1nc(NCCO)nc(N)c1[N+](=O)[O-]
13,0.18 (inactive),COc1ccccc1-c1cc(C(F)(F)F)nc(S(=O)(=O)CCCC(=O)NC(C)C)n1
14,0.24 (inactive),CCOC(=O)CS(=O)(=O)c1nc(-c2ccccc2)cc(C(F)(F)F)n1
15,2.85 (inactive),Oc1c(I)cc(Cl)c2cccnc12
16,0.12 (inactive),Nc1ncnc(Nc2cc(Cl)cc(Cl)c2)c1[N+](=O)[O-]
17,0.08 (inactive),CNc1nc(N)c([N+](=O)[O-])c(Nc2ccccc2OC)n1
18,0.06 (inactive),Cc1nc2c(O)cccc2cc1CO
19,0.18 (inactive),COCCNc1nc(N)c([N+](=O)[O-])c(Nc2ccc(F)cc2)n1
20,0.06 (inactive),NC(=O)c1ccnc2c(O)cccc12
21,0.65 (inactive),Cc1ccc(NN2C(=O)C=C(c3ccccc3)C2=O)cc1

row,fluorescence change,SMILES
1,0.8 (inactive),CCC(C)Nc1nc(N)c([N+](=O)[O-])c(Nc2cc(OC)ccc2OC)n1 (stereo unspecified)
2,0 (inactive),Cc1ccc2c(C)ccc(O)c2n1
3,0.24 (inactive),Cc1ccc(C(=O)Nc2nc(-c3ccccn3)cs2)o1
4,0.06 (inactive),CNc1nc(C)c([N+](=O)[O-])c(Nc2ccc(OC)cc2)n1
5,0.12 (inactive),Nc1nc(NCCOCCO)nc(Nc2cccc(F)c2)c1[N+](=O)[O-]
6,0.12 (inactive),O=C(O)c1ccc2cccnc2c1O
7,0.24 (inactive),CC1=NNC(=O)/C1=C\c1cn(-c2ccccc2)nc1-c1ccc(F)cc1
8,0.06 (inactive),CCC(C)Nc1nc(N)c([N+](=O)[O-])c(Nc2ccccc2OC)n1 (stereo unspecified)
9,0.5 (inactive),COc1ccccc1-c1cc(C(F)(F)F)nc(S(=O)(=O)CCCC(=O)O)n1
10,0.06 (inactive),COc1ccc(Nc2nc(NN)nc(C)c2[N+](=O)[O-])cc1
11,0.24 (inactive),COc1cccc2c(Cl)c(CCCl)c(C)nc12
12,3.5 (inactive),Oc1c(Br)cc(Br)c2cccnc12
13,0.18 (inactive),O=C(O)c1ccc2cccc(O)c2n1
14,0.06 (inactive),COCCCNc1nc(N)c([N+](=O)[O-])c(Nc2ccccc2OC)n1
15,0.12 (inactive),COc1ccc(OC)c(Nc2nc(NCCC(C)C)nc(N)c2[N+](=O)[O-])c1
16,0.06 (inactive),COc1ccc(OC)c2c(=O)cc(C(=O)O)[nH]c12
17,0.25 (inactive),CCCOCc1ccc(O)c2ncccc12
18,0 (inactive),Cc1nc(Nc2ccc(Br)cc2Br)c([N+](=O)[O-])c(=O)[nH]1
19,0.06 (inactive),Oc1ccc(F)c2cccnc12
20,0.07 (inactive),COc1ccccc1Nc1nc(NCCC(C)C)nc(N)c1[N+](=O)[O-]
